The source of these data is PubChem BioAssay (NCI).

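Five compound concentrations were applied to cells in 96-well plates for 48 hours; endpoints were derived by simple linear interpolation of the resulting dose-response curve. Here, GI50 denotes the concentration required for 50% inhibition of growth. At the TGI there is no net growth.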

For orientation: GI50 means the concentration that inhibits growth by half. One may read the TGI as the concentration at which net growth stops. Lower therefore signals greater sensitivity of the cells.

Test systems include NCI-H522 lung; OVCAR-8 ovarian; LOX IMVI melanoma; NCI-H23 lung; MCF7 breast; HCT-15 colon; NCI-H226 lung; SF-268 CNS; SK-MEL-28 melanoma; MALME-3M melanoma.
What all share (test): DTP human tumour cell line panel, 48 h

For the molecule `CCCCCCc1cc2cc(-c3csc(/C=C/c4ccccc4)n3)c(=O)oc2cc1O`, the GI50 was 3.93 µM with NCI-H522 lung; 2.79 µM in the experiment on OVCAR-8 ovarian; 3.29 µM with LOX IMVI melanoma; 3.09 µM in the experiment on NCI-H23 lung; 4.62 µM in the experiment with MCF7 breast; 5.53 µM in the experiment on HCT-15 colon. For the same molecule, the GI50 is 15.2 µM in the experiment on NCI-H226 lung, 11.6 µM in the experiment with SF-268 CNS, 10.6 µM in the experiment on SK-MEL-28 melanoma and 14.7 µM in the experiment with MALME-3M melanoma. The total growth inhibition concentration (TGI) with NCI-H522 lung is 17.9 µM; in the experiment with OVCAR-8 ovarian it was 9.55 µM; with LOX IMVI melanoma it was 12.8 µM; with NCI-H23 lung it was 10.1 µM; in the experiment with MCF7 breast it was 44 µM; in the experiment with HCT-15 colon it was greater than 100 µM. Besides, the concentration for total growth inhibition (TGI) in the experiment with NCI-H226 lung was determined as 33.4 µM; in the experiment on SF-268 CNS, 28.9 µM; in the experiment on SK-MEL-28 melanoma it was 24.9 µM; in the experiment on MALME-3M melanoma, 34.6 µM.
With `FC(F)(F)c1ccc(-c2ncc(-c3ccc(C(F)(F)F)cc3)c(NCc3cc(C(F)(F)F)cc(C(F)(F)F)c3)n2)cc1`, the GI50 with NCI-H522 lung was 3.29 µM; with OVCAR-8 ovarian, 3.8 µM; with LOX IMVI melanoma, 3.4 µM; with NCI-H23 lung, 3.24 µM; in the experiment with MCF7 breast, 3.94 µM; in the experiment on HCT-15 colon, 3.74 µM. Besides, the GI50 in the experiment on NCI-H226 lung is 3.76 µM; in the experiment on SF-268 CNS, 3.98 µM; with SK-MEL-28 melanoma, 5.85 µM; in the experiment with MALME-3M melanoma, 6.44 µM. For the same molecule, the TGI in the experiment on NCI-H522 lung was 22.6 µM; with OVCAR-8 ovarian, greater than 100 µM; with LOX IMVI melanoma, 26.2 µM; in the experiment with NCI-H23 lung, 23.8 µM; in the experiment on MCF7 breast it was greater than 100 µM; with HCT-15 colon, greater than 100 µM. Also, the TGI in the experiment on NCI-H226 lung is 83.8 µM; in the experiment with SF-268 CNS, greater than 100 µM; with SK-MEL-28 melanoma, greater than 100 µM; with MALME-3M melanoma it was 46.3 µM.
For the molecule `O=C1c2cccnc2C(=O)c2c1c(C(=O)OCCc1ccccn1)c1ccccn21`, the concentration for 50% growth inhibition (GI50) is 0.12 µM with NCI-H522 lung; 0.0589 µM with OVCAR-8 ovarian; 0.0206 µM in the experiment with LOX IMVI melanoma; 0.0218 µM in the experiment on NCI-H23 lung; less than 0.01 µM in the experiment with MCF7 breast; 0.0145 µM in the experiment on HCT-15 colon. The GI50 in the experiment with NCI-H226 lung is 0.0277 µM; with SF-268 CNS, 0.0188 µM; in the experiment on SK-MEL-28 melanoma it was 0.0749 µM; in the experiment with MALME-3M melanoma, 0.0613 µM. Also, the TGI with NCI-H522 lung was 0.714 µM; in the experiment on OVCAR-8 ovarian it was 2.12 µM; in the experiment on LOX IMVI melanoma it was 1.12 µM; in the experiment with NCI-H23 lung it was 1.06 µM; in the experiment with MCF7 breast, 0.147 µM; in the experiment with HCT-15 colon it was 1.46 µM. Besides, the concentration for total growth inhibition (TGI) with NCI-H226 lung worked out at 0.472 µM; in the experiment on SF-268 CNS it was 5.31 µM; with SK-MEL-28 melanoma it was 1.55 µM; with MALME-3M melanoma, 0.924 µM.
On to `c1ccc(-c2cn(-c3ccccc3)c(-c3ccccc3)n2)cc1`, for which the GI50 in the experiment with NCI-H522 lung is 13.3 µM; in the experiment with OVCAR-8 ovarian it was 7.89 µM; with LOX IMVI melanoma, 1.95 µM; with NCI-H23 lung it was 16.6 µM; with MCF7 breast it was 1.59 µM; in the experiment with HCT-15 colon it was 3.84 µM. Besides, the GI50 in the experiment with NCI-H226 lung is 19.8 µM; with SF-268 CNS, 14.8 µM; with SK-MEL-28 melanoma it was 4.75 µM; in the experiment with MALME-3M melanoma, 19.5 µM. For the same molecule, the total growth inhibition concentration (TGI) in the experiment on NCI-H522 lung came out at 27.2 µM; in the experiment on OVCAR-8 ovarian it was 20.4 µM; in the experiment on LOX IMVI melanoma, 4.29 µM; in the experiment with NCI-H23 lung it was 34.9 µM; with MCF7 breast it was 5.76 µM; in the experiment with HCT-15 colon, 17.8 µM. Moreover, the concentration for total growth inhibition (TGI) in the experiment with NCI-H226 lung is 37.7 µM; with SF-268 CNS, 29.5 µM; with SK-MEL-28 melanoma, 16.5 µM; in the experiment on MALME-3M melanoma, 36.7 µM.
As to `C/C(=N/NC(=S)N1CC2CCC(CC2)C1)c1cnccn1`, the concentration for total growth inhibition (TGI) in the experiment with NCI-H522 lung amounted to 10.1 µM; in the experiment on OVCAR-8 ovarian, 11.8 µM; with LOX IMVI melanoma it was 11.4 µM; with NCI-H23 lung, 13.7 µM; in the experiment with MCF7 breast it was 12.1 µM; with HCT-15 colon, 16 µM. In addition, the TGI came out at 1.33 µM with NCI-H226 lung, 11 µM in the experiment with SF-268 CNS, 22.4 µM in the experiment on SK-MEL-28 melanoma and 10.3 µM with MALME-3M melanoma.
Take `O=C(NS(=O)(=O)c1ccc(NC[C@H]2COCCO2)c([N+](=O)[O-])c1)c1ccc(N2CCN(CC3=C(c4ccc(Cl)cc4)CC4(CCC4)CC3)CC2)cc1Oc1cnc2[nH]ccc2c1`: the GI50 with NCI-H522 lung is 1.93 µM; in the experiment with OVCAR-8 ovarian it was 2.18 µM; with LOX IMVI melanoma, 1.85 µM; in the experiment on NCI-H23 lung it was 2.77 µM; with MCF7 breast, 2.29 µM; in the experiment with HCT-15 colon, 1.94 µM. Also, the GI50 in the experiment with NCI-H226 lung is 1.88 µM; in the experiment on SF-268 CNS, 2.97 µM; in the experiment on SK-MEL-28 melanoma, 1.58 µM; in the experiment on MALME-3M melanoma it was 1.69 µM. Besides, the total growth inhibition concentration (TGI) in the experiment on NCI-H522 lung amounted to 4.62 µM; with OVCAR-8 ovarian, 5.06 µM; in the experiment on LOX IMVI melanoma, 3.63 µM; with NCI-H23 lung it was 8.6 µM; in the experiment with MCF7 breast it was 10.4 µM; in the experiment with HCT-15 colon it was 4.62 µM. Besides, the TGI in the experiment with NCI-H226 lung is 3.93 µM; with SF-268 CNS it was 17.9 µM; with SK-MEL-28 melanoma, 3.39 µM; in the experiment on MALME-3M melanoma, 3.2 µM.
Consider `O=C1NC(=O)C(c2ccccc2)=C1Nc1ccccc1`, for which the GI50 in the experiment on NCI-H522 lung, in the experiment with OVCAR-8 ovarian, in the experiment on LOX IMVI melanoma, with MCF7 breast, with HCT-15 colon and with SF-268 CNS was greater than 25 µM each time. Besides, the GI50 with SK-MEL-28 melanoma and with MALME-3M melanoma was greater than 25 µM throughout. Further, the concentration for total growth inhibition (TGI) in the experiment with NCI-H522 lung, in the experiment with OVCAR-8 ovarian, in the experiment with LOX IMVI melanoma, in the experiment with MCF7 breast, with HCT-15 colon and with SF-268 CNS was greater than 25 µM each time. Also, the total growth inhibition concentration (TGI) with SK-MEL-28 melanoma and with MALME-3M melanoma was greater than 25 µM each time.
As to `CCC(C)(C)[C@H](NC(=O)[C@H]1CCCCN1C)C(=O)N(C)[C@H](C[C@@H](OC(C)=O)c1nc(C(=O)N[C@@H](Cc2ccccc2)C[C@H](C)C(=O)O)cs1)C(C)C`, the 50% growth inhibitory concentration (GI50) in the experiment with NCI-H522 lung, with OVCAR-8 ovarian, with LOX IMVI melanoma, in the experiment on NCI-H23 lung, in the experiment with MCF7 breast and in the experiment on HCT-15 colon was less than 0.00167 µM each time. Further, the GI50 in the experiment on NCI-H226 lung is less than 0.00167 µM; with SF-268 CNS, 0.00217 µM; in the experiment on MALME-3M melanoma it was less than 0.00167 µM. In addition, the TGI in the experiment with NCI-H522 lung is 0.00583 µM; in the experiment on OVCAR-8 ovarian it was greater than 16.7 µM; in the experiment on LOX IMVI melanoma, greater than 16.7 µM; with NCI-H23 lung, greater than 16.7 µM; with MCF7 breast, greater than 16.7 µM; in the experiment with HCT-15 colon, greater than 16.7 µM. The values for the concentration for total growth inhibition (TGI) in the experiment with NCI-H226 lung, in the experiment with SF-268 CNS and with MALME-3M melanoma were 0.00743 µM, greater than 16.7 µM and greater than 16.7 µM, respectively.
